Patent US20230104357A1, “Combination of Retromer Pharmacological Chaperones and Exogenous Retromer for the Treatment of Alzheimer's Disease and Other Neurodegenerative Diseases and Disorders” (The Trustees of Columbia University in the City of New York, priority 2020, published 2023)

Tests used:
VPS35 [1] = target: T1, VPS35 (Mus musculus, UniProt Q9EQH3); settings: cultured primary neurons; Mecozzi et al. 2014; cited from earlier work
T1 construct: cultured primary neurons; endogenous in cells; host or cells: cultured primary neurons

VPS26 = settings: cultured primary neurons; Mecozzi et al. 2014; cited from earlier work
VPS35 [2] = target: T2, VPS35 (Homo sapiens, UniProt Q96QK1); experiment: Western blot of VPS35 protein levels in HECT293T cells after VPS35 plasmid transfection and/or R55; format: cell-based; settings: 5 μM of R55, Western blot 72 hours after transfection, lanes 7 and 8
T2 construct: expressed in transfected cells; host or cells: HECT293T cells
Description: Human HECT293 cells, considered a model for human neurons, were cultured. VPS35 was delivered via plasmid to HECT293T cells under control of the constitutive EF1a promoter. Pharmacological chaperone R55 was administered to the cells as an aqueous solution at concentrations of 5 uM and 50 uM at the time of transfection. Protein levels were assessed by Western blot 72 hours after transfection.
Lipofectamine transfection protocols were used with some modifications. Briefly lipofectamine LTX was used to co-transfect Vps35 and Vps26 (Vps26a or Vps26b) plasmids into the cells in a 6 well format. 100k cells were plated in each well already containing medium with DNA-lipofectamine complexes. Empty chassis and GFP as were used as control plasmids. Amount of DNA copies introduced per well was 2.81 E+11. Cells were harvested 48 hours after transfection using RIPA buffer as described previously (Qureshi et al. 2019).
Cells were lysed in RIPA and protein were isolated as described previously (Qureshi et al. 2019; Kirby et al. 2015). Lysates from the samples were run on NuPAGE® Bis-Tris 4-12% gels, transferred onto nitrocellulose membranes using iblot and were probed with antibodies.
A primary antibody targeting VPS35 was used (ab57632, Abcam, 1:1k). Western blots were scanned using the Odyssey imaging system as described previously (Eaton et al. 2013). […]

[3] = target: purified, reconstituted heterotrimeric complex (Homo sapiens, UniProt Q96QK1+Q9UBQ0); settings: various concentrations; Mecozzi et al. 2014; cited from earlier work

In the case of `[H]/N=C(\N)SCc1ccc(CS/C(N)=N/[H])s1` [R55], the VPS35 protein levels (VPS35 [1]) is listed as “increased”, the VPS26 protein levels (VPS26) is listed as “increased” and the “increase on endogenous VPS35 protein levels” value (VPS35 [2]) is listed as “about 50%”. For the same compound, the “thermal stability (denaturation temperature of the complex)” value [3] was “improved thermal stability significantly”.
